What all share (assay type): cell-based
For one assay, the system named is MDA-MB-436. Nature of the assay: WST-1 proliferation assay, MDA-MB-436. The following applies: Homo sapiens; Breast MDA-MB-436, 72 h; read-out: Anti-proliferative activity IC50 (μM) ± SD. From the text: Several cancer cell lines were used: breast cancer cells (MDA-MB-231 (ATTCC® Number HTB-26™), MDA-MB-436 (ATTCC® Number HTB-130™), MDA-MB-438, BT-474 (ATTCC® Number HTB-20™)); cervical cancer cells (HeLa (ATTCC® Number CCL-2™)); colon cancer cells (HCT-116 (ATTCC® Number CCL-247™) and HT-29 (ATTCC® Number HTB-38™)); osteosarcoma cells (U2OS (ATTCC® Number HTB-96™)); pancreas cancer cells (MIA PaCa-2 (ATTCC® Number CRL-1420™) and Panc-10.5 (ATTCC® Number CRL-2547™)); prostate cancer cells (PC-3 (ATTCC® Number CRL-1435™) and LNCaP (ATTCC® Number CRL-1740™)); brain cancer cells (U87 glioblastoma (ATTCC® Number HTB-14™) and SH-SYSY neuroblastoma (ATTCC® Number CRL-2266™)). […]
After observation of cells under the microscope, old media were removed and the adherent cells washed gently twice with PBS (Phosphate Buffer Saline, —Ca^2+, —Mg^2+, Lonza cat no: 17-512F/12). […] 50 μl of this solution were transferred in 20 μl of isotonic solution and the cells were counted by count cellular (Beckman Coulter). […]
(§1) The cell proliferation WST-1 assay is a colorimetric assay for the quantification of cell proliferation and viability, based on the enzymatic cleavage of the tetrazolium salt WST-1 added to the culture medium, to a water soluble colored formazan dye, detected by absorbance at 450 nm, by mitochondrial succinate-tetrazolium reductase in viable cells. […]
Background: Tetrazolium dyes change colour on reduction, which living cells bring about.

The next assay relates to HUVEC cells. Kind of assay: Tube formation assay. The following applies: HUVEC on collagen, IC50 concentration (FIGS. 1D, 3B). The procedure: Collagen type I (1 mg/ml, BD) was mixed with 0.1N NaOH, 0.1% bicarbonate and 10× in medium EBM-2 and kept on ice until placed into the wells. The assay was prepared in 96-well plate format and the bottom layer of collagen was formed by adding 70 μL of the solution per well and allowing subsequent gelation at 37° C. for 30 min. The HUVEC cells were then seeded on collagen at […] cells per well. After monolayer formation (one day), a second layer of collagen 200 μL per well was prepared according to the same protocol and gently placed on top of the cell layer. The compounds of the invention were added to the cells at the adhesion step (concentration corresponding to the Inhibitory Concentration 50 (IC50)). After 24 and 48 h of incubation at 37° C., tube formation was observed and pictures were taken.

For another assay, the system named is RAJI. Nature of the assay: WST-1 proliferation assay, RAJI. The note with it: Homo sapiens; Burkitt's lymphoma RAJI; read-out: Anti-proliferative activity IC50 (μM) ± SD. As to the method: All the cancer cell lines were maintained in cultured in DMEM GlutaMAX™ (GIBCO Invitrogen, France, cat no 31966047) enhanced with 10% foetal bovine serum (GIBCO Invitrogen, France, cat no 10270-106) and 1% penicillin G/streptomycin (GIBCO Invitrogen, France, cat no 15140-122). Only Panc-10.5 cells were cultivated in RPMI 1640 medium (Gibco) supplemented with 2 mM L-glutamine, 1.5 g/L sodium bicarbonate, 4.5 g/L glucose, 10 mM HEPES, 1 mM sodium pyruvate, 10 Units/ml human insulin, […] (SVF): 15% (75 ml in 500 ml of medium).
Cells were grown as subconfluent monolayer and cultured in 75 cm^2 flasks at 37° C., 5% CO2 in a humidified atmosphere, and medium was changed every two days. […]
as §1
After an incubation period of 72 h, at day 4, were prepared the 19 ml medium with reagent WST-1 1 ml ([…]). […] The cells were incubated at 37° C. in a humidified atmosphere of 5% CO2 for 1 h 30 and the absorbance at 450-655 nm was measured by Microplate Manager 5.2 (Bio-Rad).

The structures appear in SMILES notation. Entries after “also recorded” stand apart in the source; their conditions may differ.

Turning to `Cc1ccc(-c2nc3ccccc3[nH]2)cc1NC(=S)NC(=O)c1ccc2c(c1)OCCO2` [Compound 1, N-[5-(1H-benzimidazol-2-yl)-2-methylphenyl]-N′-(2,3-dihydro-1,4-benzodioxin-6-ylcarbonyl)thiourea], the IC50 in the assay on MDA-MB-436 was determined as 1.5 ± 0.02 µM; with RAJI it was 1.5 ± 0.01 µM. The “formation of new blood vessels (tube formation)” value in the assay on HUVEC cells is given as “inhibited the tube formation; also recorded: effectively inhibited”.
Turning to `O=C(NC(=S)Nc1cccc(-c2nc3ccccc3[nH]2)c1)c1ccc2c(c1)OCCO2` [Compound 2, N-[3-(1H-benzimidazol-2-yl)phenyl]-N′-(2,3-dihydro-1,4-benzodioxin-6-ylcarbonyl)thiourea], the IC50 was 2.3 ± 0.03 µM in the assay with MDA-MB-436 and 1.3 ± 0.04 µM in the assay with RAJI. Further, the “formation of new blood vessels (tube formation)” value in the assay with HUVEC cells is reported as “inhibited the tube formation; also recorded: effectively inhibited”.

Usually IC50 stands for the point on the concentration scale where inhibition reaches its midpoint.

For the origin of these results see patent US20130041005A1, “PHARMACEUTICAL COMPOSITIONS COMPRISING NEUROPILIN INHIBITORS, AND THEIR USE FOR THE PREVENTION AND/OR TREATMENT OF ANGIOGENIC DISORDERS AND CANCERS” (TRAGEX PHARMA, priority 2011, published 2013).
